Assay results taken from patent US11168083B2, “Inhibitors of Plasma Kallikrein and uses thereof” (Takeda Pharmaceutical Company Limited, priority 2017, dated 2021).

Each compound was assayed against human activated kallikrein enzyme (Homo sapiens (Human), UniProt P03952) (assay: Inhibition of human activated kallikrein enzyme, fluorogenic peptide substrate assay (two formats)). Conditions: Table 2; column head prints nM, ranges defined in μM; read-out: pKal EC50.
Assay type: biochemical
Method: The example compounds were evaluated for inhibition of the human activated kallikrein enzyme in two formats of an assay employing a fluorogenic peptide substrate. In one assay format, the concentrations of reagents were as follows: 20 mM Tris pH 7.5, 1 mM EDTA, 150 mM sodium chloride, 0.1% PEG-400, 0.1% Triton X-100, 500 pM activated kallikrein enzyme, 300 uM Pro-Phe-Arg-7-amido-4-methylcoumarin substrate. Prior to reaction initiation with substrate, enzyme and inhibitors were preincubated for 30 min at room temperature. After initiation with substrate, reactions were incubated for 10 min at room temperature and fluorescence emission at 460 nm from 380 nm excitation measured with a microplate reader. In another assay format, the concentrations of reagents were as follows: 20 mM Tris pH 7.5, 1 mM EDTA, 150 mM sodium chloride, 0.1% PEG-400, 0.1% Triton X-100, 5 pM activated kallikrein enzyme, 300 uM Pro-Phe-Arg-7-amido-4-methylcoumarin substrate. Prior to reaction initiation with substrate, enzyme and inhibitors were preincubated for 30 min at room temperature. After initiation with substrate, reactions were incubated for 18 hr at room temperature and fluorescence emission at 460 nm from 380 nm excitation measured with a microplate reader.

human activated kallikrein enzyme, sequence (P03952 391-638): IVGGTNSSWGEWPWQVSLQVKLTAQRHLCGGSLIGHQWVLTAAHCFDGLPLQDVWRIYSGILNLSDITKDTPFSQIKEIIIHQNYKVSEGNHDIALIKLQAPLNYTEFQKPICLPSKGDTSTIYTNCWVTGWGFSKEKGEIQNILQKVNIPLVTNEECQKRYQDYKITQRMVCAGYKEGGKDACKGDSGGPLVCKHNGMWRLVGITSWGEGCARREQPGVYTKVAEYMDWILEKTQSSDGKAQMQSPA
human activated kallikrein enzyme, sequence (P03952 20-390 partner): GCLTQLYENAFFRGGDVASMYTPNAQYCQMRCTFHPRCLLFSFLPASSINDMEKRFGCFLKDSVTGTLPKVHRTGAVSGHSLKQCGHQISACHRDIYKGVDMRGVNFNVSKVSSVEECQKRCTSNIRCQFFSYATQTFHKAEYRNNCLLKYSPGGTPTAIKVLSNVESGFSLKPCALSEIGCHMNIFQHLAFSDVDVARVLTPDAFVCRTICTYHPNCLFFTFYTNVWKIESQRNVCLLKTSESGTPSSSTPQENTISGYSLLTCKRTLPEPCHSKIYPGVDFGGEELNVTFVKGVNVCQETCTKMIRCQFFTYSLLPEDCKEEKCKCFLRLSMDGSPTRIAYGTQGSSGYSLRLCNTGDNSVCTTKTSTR

| SMILES | EC50 [nM] |
| --- | --- |
| CNC(=O)[C@H](CCCCNC(=N)N)NC(=O)c1csc([C@H]2C[C@@H](N)CN2C(=O)c2cn3cc(Cl)ccc3n2)n1 [Compound 1, 2-((2R,4R)-4-amino-1-(6-chloroimidazo[1,2-a]pyridine-2-carbonyl)pyrrolidin-2-yl)-N—((S)-6-guanidino-1-(methylamino)-1-oxohexan-2-yl)thiazole-4-carboxamide] | 1000 to 5000 |
| CNC(=O)[C@@H](CCCCNC(=N)N)NC(=O)c1csc([C@H]2C[C@@H](N)CN2C(=O)c2cn3cc(Cl)ccc3n2)n1 [Compound 2, 2-((2R,4R)-4-amino-1-(6-chloroimidazo[1,2-a]pyridine-2-carbonyl)pyrrolidin-2-yl)-N—((R)-6-guanidino-1-(methylamino)-1-oxohexan-2-yl)thiazole-4-carboxamide] | > 9900 |
| CNC(=O)[C@H](CCCCNC(=N)N)NC(=O)c1csc([C@H]2CCCN2C(=O)c2cn3cc(Cl)ccc3n2)n1 [Compound 3, 2-((R)-1-(6-Chloroimidazo[1,2-a]pyridine-2-carbonyl)pyrrolidin-2-yl)-N—((S)-6-guanidino-1-(methylamino)-1-oxohexan-2-yl)thiazole-4-carboxamide] | > 9900 |
| CNC(=O)[C@@H](CCCCNC(=N)N)NC(=O)c1csc([C@H]2CCCN2C(=O)c2cn3cc(Cl)ccc3n2)n1 [Compound 4, 2-((R)-1-(6-Chloroimidazo[1,2-a]pyridine-2-carbonyl)pyrrolidin-2-yl)-N—((R)-6-guanidino-1-(methylamino)-1-oxohexan-2-yl)thiazole-4-carboxamide] | > 9900 |
| CNC(=O)[C@H](CCCCNC(=N)N)NC(=O)c1csc([C@H]2C[C@@H](NC(C)=O)CN2C(=O)c2cn3cc(Cl)ccc3n2)n1 [Compound 5, 2-((2R,4R)-4-acetamido-1-(6-chloroimidazo[1,2-a]pyridine-2-carbonyl)pyrrolidin-2-yl)-N—((S)-6-guanidino-1-(methylamino)-1-oxohexan-2-yl)thiazole-4-carboxamide] | > 9900 |
| CNC(=O)[C@H](CCCCNC(=N)N)NC(=O)c1csc([C@H]2C[C@H](N)CN2C(=O)c2cn3cc(Cl)ccc3n2)n1 [Compound 6, 2-((2R,4S)-4-amino-1-(6-chloroimidazo[1,2-a]pyridine-2-carbonyl)pyrrolidin-2-yl)-N—((S)-6-guanidino-1-(methylamino)-1-oxohexan-2-yl)thiazole-4-carboxamide] | 1000 to 5000 |
| CNC(=O)[C@H](CCCCNC(=N)N)NC(=O)c1csc([C@H]2C[C@H](O)CN2C(=O)c2cn3cc(Cl)ccc3n2)n1 [Compound 7, 2-((2R,4S)-1-(6-Chloroimidazo[1,2-a]pyridine-2-carbonyl)-4-hydroxypyrrolidin-2-yl)-N—((S)-6-guanidino-1-(methylamino)-1-oxohexan-2-yl)thiazole-4-carboxamide] | > 9900 |
| CNC(=O)[C@@H](CCCCNC(=N)N)NC(=O)c1csc([C@H]2C[C@H](O)CN2C(=O)c2cn3cc(Cl)ccc3n2)n1 [Compound 8, 2-((2R,4S)-1-(6-Chloroimidazo[,1,2-a]pyridine-2-carbonyl)-4-hydroxypyrrolidin-2-yl)-N—((R)-6-guanidino-1-(methylamino)-1-oxohexan-2-yl)thiazole-4-carboxamide] | > 9900 |
| CNC(=O)[C@H](CCCCNC(=N)N)NC(=O)c1csc([C@H]2C[C@@H](O)CN2C(=O)c2cn3cc(Cl)ccc3n2)n1 [Compound 9, 2-((2R,4R)-1-(6-Chloroimidazo[1,2-a]pyridine-2-carbonyl)-4-hydroxypyrrolidin-2-yl)-N—((S)-6-guanidino-1-(methylamino)-1-oxohexan-2-yl)thiazole-4-carboxamide] | > 9900 |
| CNC(=O)[C@@H](CCCCNC(=N)N)NC(=O)c1csc([C@H]2C[C@@H](O)CN2C(=O)c2cn3cc(Cl)ccc3n2)n1 [Compound 10, 2-((2R,4R)-1-(6-Chloroimidazo[1,2-a]pyridine-2-carbonyl)-4-hydroxypyrrolidin-2-yl)-N—((R)-6-guanidino-1-(methylamino)-1-oxohexan-2-yl)thiazole-4-carboxamide] | > 9900 |
| CNC(=O)[C@@H](CCCCNC(=N)N)NC(=O)c1csc([C@@H]2C[C@@H](N)CN2C(=O)c2cn3cc(Cl)ccc3n2)n1 [Compound 12, 2-((2S,4R)-4-amino-1-(6-chloroimidazo[1,2-a]pyridine-2-carbonyl)pyrrolidin-2-yl)-N—((R)-6-guanidino-1-(methylamino)-1-oxohexan-2-yl)thiazole-4-carboxamide] | ≤ 100 |
| CNC(=O)[C@H](CCCCNC(=N)N)NC(=O)c1csc([C@@H]2C[C@@H](N)CN2C(=O)c2cn3ccccc3n2)n1 [Compound 13, 2-((2S,4R)-4-amino-1-(imidazo[1,2-a]pyridine-2-carbonyl)pyrrolidin-2-yl)-N—((S)-6-guanidino-1-(methylamino)-1-oxohexan-2-yl)thiazole-4-carboxamide] | 100 to 1000 |
| CNC(=O)[C@H](CCCCNC(=N)N)NC(=O)c1csc([C@@H]2C[C@@H](N)CN2C(=O)c2cn(C)c(C)n2)n1 [Compound 14, 2-((2S,4R)-4-amino-1-(1,2-dimethyl-1H-imidazole-4-carbonyl)pyrrolidin-2-yl)-N—((S)-6-guanidino-1-(methylamino)-1-oxohexan-2-yl)thiazole-4-carboxamide] | > 9900 |
| CNC(=O)[C@H](CCCCNC(=N)N)NC(=O)c1csc([C@@H]2C[C@@H](N)CN2C(=O)c2ccccc2)n1 [Compound 15, 2-((2S,4R)-4-amino-1-benzoylpyrrolidin-2-yl)-N—((S)-6-guanidino-1-(methylamino)-1-oxohexan-2-yl)thiazole-4-carboxamide] | > 9900 |
| CNC(=O)[C@H](CCCCNC(=N)N)NC(=O)c1csc([C@@H]2C[C@@H](N)CN2C(=O)OCc2cccc(Cl)c2)n1 [Compound 16, 3-chlorobenzyl (2S,4R)-4-amino-2-(4-(((S)-6-guanidino-1-(methylamino)-1-oxohexan-2-yl)carbamoyl)thiazol-2-yl)pyrrolidine-1-carboxylate] | 1000 to 5000 |
| CNC(=O)[C@H](CCCCNC(=N)N)NC(=O)c1csc([C@@H]2C[C@@H](N)CN2C(=O)C2CCCCC2)n1 [Compound 17, 2-((2S,4R)-4-amino-1-(cyclohexanecarbonyl)pyrrolidin-2-yl)-N—((S)-6-guanidino-1-(methylamino)-1-oxohexan-2-yl)thiazole-4-carboxamide] | > 9900 |
| CNC(=O)[C@H](CCCCNC(=N)N)NC(=O)c1csc([C@@H]2C[C@@H](N)CN2C(=O)C(C)C)n1 [Compound 18, 2-((2S,4R)-4-amino-1-isobutyrylpyrrolidin-2-yl)-N—((S)-6-guanidino-1-(methylamino)-1-oxohexan-2-yl)thiazole-4-carboxamide] | > 9900 |
| CNC(=O)[C@H](CCCCNC(=N)N)NC(=O)c1csc([C@@H]2C[C@@H](N)CN2C(=O)c2cn3cc(C(F)(F)F)ccc3n2)n1 [Compound 19, 2-((2S,4R)-4-amino-1-(6-(trifluoromethyl)imidazo[1,2-a]pyridine-2-carbonyl)pyrrolidin-2-yl)-N—((S)-6-guanidino-1-(methylamino)-1-oxohexan-2-yl)thiazole-4-carboxamide] | ≤ 100 |
| CNC(=O)[C@H](CCCCNC(=N)N)NC(=O)c1csc([C@@H]2C[C@@H](N)CN2C(=O)c2cn3cc(OC)ccc3n2)n1 [Compound 20, 2-((2S,4R)-4-amino-1-(6-methoxyimidazo[1,2-a]pyridine-2-carbonyl)pyrrolidin-2-yl)-N—((S)-6-guanidino-1-(methylamino)-1-oxohexan-2-yl)thiazole-4-carboxamide] | 100 to 1000 |
| CNC(=O)[C@H](CCCCNC(=N)N)NC(=O)c1csc([C@@H]2C[C@@H](N)CN2C(=O)c2cn3cc(I)ccc3n2)n1 [Compound 21, 2-((2S,4R)-4-amino-1-(6-iodoimidazo[1,2-a]pyridine-2-carbonyl)pyrrolidin-2-yl)-N—((S)-6-guanidino-1-(methylamino)-1-oxohexan-2-yl)thiazole-4-carboxamide] | ≤ 100 |
| N=C(N)NCCCC[C@H](NC(=O)c1csc([C@@H]2C[C@@H](N)CN2C(=O)c2cn3cc(Cl)ccc3n2)n1)C(N)=O [Compound 22, 2-((2S,4R)-4-amino-1-(6-chloroimidazo[1,2-a]pyridine-2-carbonyl)pyrrolidin-2-yl)-N—((S)-1-amino-6-guanidino-1-oxohexan-2-yl)thiazole-4-carboxamide] | ≤ 100 |
| N=C(N)NCCCC[C@H](NC(=O)c1csc([C@@H]2C[C@@H](N)CN2C(=O)c2cn3cc(Cl)ccc3n2)n1)C(=O)O [Compound 23, N^2-(2-((2S,4R)-4-amino-1-(6-chloroimidazo[1,2-a]pyridine-2-carbonyl)pyrrolidin-2-yl)thiazole-4-carbonyl)-N6-carbamimidoyl-L-lysine] | ≤ 100 |
| CN(C)C(=O)[C@H](CCCCNC(=N)N)NC(=O)c1csc([C@@H]2C[C@@H](N)CN2C(=O)c2cn3cc(Cl)ccc3n2)n1 [Compound 24, 2-((2S,4R)-4-amino-1-(6-chloroimidazo[1,2-a]pyridine-2-carbonyl)pyrrolidin-2-yl)-N—((S)-1-(dimethylamino)-6-guanidino-1-oxohexan-2-yl)thiazole-4-carboxamide] | 100 to 1000 |
| CNC(=O)[C@H](CCCCN)NC(=O)c1csc([C@@H]2C[C@@H](N)CN2C(=O)c2cn3cc(Cl)ccc3n2)n1 [Compound 25, 2-((2S,4R)-4-amino-1-(6-chloroimidazo[1,2-a]pyridine-2-carbonyl)pyrrolidin-2-yl)-N—((S)-6-amino-1-(methylamino)-1-oxohexan-2-yl)thiazole-4-carboxamide] | > 9900 |
